Experimental data as given in patent US20040259942A1, “Modulation of stat activity” (priority 2001, published 2004).

How the values were obtained:
BR293 cells = assay: Cell proliferation assay (cell counting); format: cell-based, human; settings: for effect on proliferation over 48 hours: PD 153035 100 nM, PD 168393 2 μM
Method: (§1) Equal numbers of BR293 and MDA-MB-468 cells were seeded in MEM containing 10% FCS into 10 cm dishes. […]. For the 48 time points, fresh medium containing the appropriate inhibitor was applied to the cells after 24 hours. Controls were allowed to grow for 48 hours in the absence of inhibitor. Thereafter, all the cells were washed twice with ice cold PBS, harvested and counted under a phase-contrast microscope. Values are expressed as averages+S.D. (n=3).
(§2) Equal numbers of BR293, MCF-10F, MCF-7, MDA-MB-468, HKEK293 and COS1 cells were seeded in the appropriate growth medium into 10 cm dishes. Cells were allowed to grow in the presence of various concentrations of OdDHL or OHHL for 24 or 48 hours. For the 48-hour time points, fresh medium containing the appropriate inhibitor was applied to the cells after 24 hours. Controls were allowed to grow for 48 hours in the absence of inhibitor. Thereafter, all the cells were washed twice with ice cold PBS, harvested and counted under a phase-contrast microscope. Values are expressed as averages ±S.D. (n=3).

MDA-MB-468 cells = assay: Cell proliferation assay (cell counting); format: cell-based, human; settings: for effect on proliferation over 48 hours: PD 153035 100 nM, PD 168393 2 μM
Method: as §1, §2

ErbB2 = assay: Tyrosine phosphorylation of ErbB2: immunoprecipitation and anti-phosphotyrosine immunoblot; format: cell-based, human; settings: EGF
Method: (§3) For immunoprecipitation and immunoblotting experiments, cells were grown to confluence in 10 cm dishes and maintained in full medium or starved in serum-free medium overnight before the application of appropriate stimuli. Lysates were prepared in TBSN buffer (50 mM Tris-HCl pH7.5, 150 mM NaCl, 1 mM EDTA, 1% NP-40) supplemented with protease inhibitors (1 mM Na3 VO4, 10 mM Na4P2O7, 10 mM NaF, 5 mM EGTA, 10 mM Benzamidine, 0.2 mM PMSF and 1 μg/ml each of leupeptin, aprotinin, pepstatin). Lysates were cleared by centrifugation at 16,000×g for 10 minutes and used directly for immunoprecipitations or stored at −20° C. for further use.
(§4) Equal amounts of lysates were incubated with the appropriate antibody for 2 hours at 4° C.
(§5) Immune complexes were then allowed to bind to protein A-Sepharose beads for 1 hour at 4° C. and collected by centrifugation. Immunoprecipitates were washed three times in 100 mM Tris-HC1 pH 7.5, 100 nM NaCl, 1 mM EDTA, 0.1 mM PMSF, 0.5% NP-40. Thereafter, samples were taken up in sodium dodecyl sulphate (SDS) loading buffer and boiled for 5 min.
(§6) Samples were separated by electrophoresis through 6% polyacrylamide-SDS gels. Proteins were then transferred to polyvinylidene difluoride (PVDF) membranes with a semi-dry electroblotting apparatus. […]

ErbB3 = assay: Tyrosine phosphorylation of ErbB3: immunoprecipitation and anti-phosphotyrosine immunoblot; format: cell-based, human
Method: as §3, §4, §5, §6

STAT3 [1] = assay: Weak constitutive STAT3 DNA-binding in serum-starved cells (EMSA supershift); format: cell-based, human
STAT3 [2] = assay: Serum-induced STAT3 tyrosine phosphorylation (immunoblot); format: cell-based, human; settings: BR293 cells; full medium, 2 hour time course; AG490 pre-treatment
Method: as §3, §4, §5
Samples were separated by electrophoresis through 6% polyacrylamide-SDS gels. Proteins were then transferred to polyvinylidene difluoride (PVDF) membranes with a semi-dry electroblotting apparatus. The membranes were incubated with appropriate primary antibodies at room temperature for 1 hour or 4° C. overnight according to suppliers' instructions, washed and stained with horseradish peroxidase-coupled secondary antibodies. The membranes were developed with an enhanced chemiluminescence kit (Amersham).
as §3, with “Na3VO4,” for “Na3 VO4,”, “aprotinin and” for “aprotinin,”, “use. AG490 was purchased from Sigma; PD153035 was provided by Glaxo-Smith-Kline and PD168393 was purchased from Calbiochem.” for “use.”
as §5, with “Equal amounts of lysates were incubated with the appropriate antibody for 2 hours at 4° C. Immune” for “Immune”, “in 10” for “in 100”, “mM Tris-HCl” for “mM Tris-HC1”, “100 mM” for “100 nM”

JAK2 = target: T1, JAK2 (Homo sapiens, UniProt O60674); assay: Serum-induced JAK2 tyrosine phosphorylation (immunoblot); format: cell-based; settings: BR293 cells; 2 hour time course; AG490 pre-treatment
T1 construct: endogenous in cells; host or cells: BR293
T1 sequence (O60674 whole entry): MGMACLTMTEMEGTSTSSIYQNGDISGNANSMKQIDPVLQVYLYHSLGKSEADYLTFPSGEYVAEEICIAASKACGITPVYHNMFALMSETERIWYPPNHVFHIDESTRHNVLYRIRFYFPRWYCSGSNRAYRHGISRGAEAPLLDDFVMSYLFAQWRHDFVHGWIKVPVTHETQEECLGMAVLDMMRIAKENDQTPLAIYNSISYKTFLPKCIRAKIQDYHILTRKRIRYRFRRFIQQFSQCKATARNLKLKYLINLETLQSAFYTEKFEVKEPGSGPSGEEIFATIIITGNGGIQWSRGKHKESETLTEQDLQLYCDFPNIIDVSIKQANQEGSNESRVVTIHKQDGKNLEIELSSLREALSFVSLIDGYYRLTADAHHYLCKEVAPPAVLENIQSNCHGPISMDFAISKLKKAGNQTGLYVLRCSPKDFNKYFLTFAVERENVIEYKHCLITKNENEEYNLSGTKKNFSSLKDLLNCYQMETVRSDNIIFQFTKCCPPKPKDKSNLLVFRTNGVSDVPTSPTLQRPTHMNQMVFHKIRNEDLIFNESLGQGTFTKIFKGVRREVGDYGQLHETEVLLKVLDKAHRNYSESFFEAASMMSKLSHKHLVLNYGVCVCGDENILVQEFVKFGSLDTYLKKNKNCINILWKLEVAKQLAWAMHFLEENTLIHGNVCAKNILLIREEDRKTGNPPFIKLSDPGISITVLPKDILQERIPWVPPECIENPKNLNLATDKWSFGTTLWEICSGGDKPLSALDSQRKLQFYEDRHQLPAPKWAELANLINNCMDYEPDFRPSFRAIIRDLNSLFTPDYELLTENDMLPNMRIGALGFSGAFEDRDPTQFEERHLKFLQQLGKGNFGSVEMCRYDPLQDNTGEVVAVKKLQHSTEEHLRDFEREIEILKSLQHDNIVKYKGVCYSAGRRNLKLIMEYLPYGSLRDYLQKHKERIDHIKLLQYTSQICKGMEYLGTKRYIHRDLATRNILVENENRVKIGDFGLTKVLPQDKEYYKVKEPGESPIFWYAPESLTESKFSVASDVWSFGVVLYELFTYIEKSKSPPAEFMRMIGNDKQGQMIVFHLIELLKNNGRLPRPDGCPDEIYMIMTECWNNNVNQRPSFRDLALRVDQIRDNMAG
Method: as §3, §4, §5, §6

STAT3 [3] = assay: STAT3 activation by conditioned medium (CM) from serum-stimulated BR293 cells; format: cell-based, human; settings: serum-starved BR293 cells treated with AG490
Method: OdDHL blocks the autocrine release of mitogens from BC cells (a) Equal numbers of BR293 cells were cultured in MEM alone, serum-free MEM conditioned by serum-stimulated BR293 cells for 2 hours, or the same supplemented with 5% FCS, as indicated. After 24 hours [^3H]-thymidine was added to the medium. After a further 18 hours, cells were harvested and analysed for incorporation of ^3H. Error bars denote SD (n=4). (b) BR293 cells were serum-starved (lane 1) or starved and stimulated with 10% FCS for 2 hours directly (lane 2) or after pretreatment with α-amanitin (1004/ml) for 2.5 hours (lane 3) or actinomycin D ([…]) for 10 min (lane 4). […] Cell lysates were prepared and analysed by Western blotting as described in the legend to FIG. 1a. […] Lysates were prepared from all the cells and analysed by Western blotting as described in the legend to FIG. 1a.
Serum-starved BR293 cells were stimulated with 10% foetal calf serum (FCS) and, after 2 hours, half the cells were harvested while the other cells were washed thoroughly and incubated for a further 4 hours in serum-free medium. […] Nuclear extracts were made from all the cells and analysed for STAT DNA-binding. […]

MCF-10F cells = settings: previously shown (refs 5, 11); cited from earlier work
BC cell = settings: ref (7); cited from earlier work

C=CC(=O)Nc1ccc2ncnc(Nc3cccc(Br)c3)c2c1 [PD 168393]
effect on proliferation over 48 hours (BR293 cells): no effect on their proliferation | effect on proliferation over 48 hours (MDA-MB-468 cells): no effect on their proliferation

EGF: Epidermal Growth Factor, used as stimulus
stimulation of ErbB2 tyrosine phosphorylation (ErbB2; BR293 cells): 3.2 fold | stimulation of ErbB2 tyrosine phosphorylation (ErbB2; T47D cells): 5.7 fold | induction of ErbB3 tyrosine phosphorylation (ErbB3; cell line co-expressing ErbB1, first value printed (cell line not given)): 6.6 fold | induction of ErbB3 tyrosine phosphorylation (ErbB3; cell line co-expressing ErbB1, second value printed (cell line not given)): 6.3 fold

N#C/C(=C/c1ccc(O)c(O)c1)C(=O)NCc1ccccc1 [AG490]
weak STAT3 DNA-binding (STAT3 [1]; BT20 and MDA-MB-468 cells, 100 μM): unaffected | serum-stimulated STAT3 tyrosine phosphorylation (STAT3 [2]): blocked | serum-stimulated tyrosine phosphorylation of JAK2 (JAK2): blocked | STAT3 activation by conditioned medium from BR293 cells (STAT3 [3]): no inhibition was observed | reduction of cell proliferation (BR293 cells; AG490 100 μM, over 48 hours): > 75% | reduction of cell proliferation (MDA-MB-468 cells; AG490 100 μM, over 48 hours): > 75% | sensitivity to JAK inhibitor (MCF-10F cells): insensitive | BC cell proliferation (BC cell): inhibits BC cell proliferation

COc1cc2ncnc(Nc3cccc(Br)c3)c2cc1OC [PD 153035]
weak, heterogeneous DNA-binding by STAT3 in extracts from serum-starved cells (STAT3 [1]; MDA-MB-468 cells, 100 nM): had no effect | effect on proliferation over 48 hours (BR293 cells): no effect on their proliferation | effect on proliferation over 48 hours (MDA-MB-468 cells): no effect on their proliferation
